Measurements taken from ChEMBL document CHEMBL1201862, “PubChem BioAssay data set” (2004).
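Tested at 5 concentrations; 48 h exposure; 96-well plates; endpoints linearly interpolated, else capped at highest concentration. GI50: concentration for 50% inhibition of growth.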 Activity calls are given as the source filed them. Cut-off read from the data, not from the text of the source: active = GI50 up to about 1.1 µM and inactive = higher.

Columns and labels:
Experiment in all cases: growth of human tumour cells (NCI), 48 h
DLD-1 = system: DLD-1
EKVX = system: EKVX
HCC 2998 = system: HCC 2998
HCT-116 = system: HCT-116
HT-29 = system: HT-29
IGROV-1 = system: IGROV-1
K562 = system: K562
NCI-H460 = system: NCI-H460
NCI-H522 = system: NCI-H522
OVCAR-3 = system: OVCAR-3
SF-268 = system: SF-268
SF-295 = system: SF-295
SK-MEL-28 = system: SK-MEL-28
SK-MEL-2 = system: SK-MEL-2
UACC-257 = system: UACC-257
UO-31 = system: UO-31
NCI-H23 = system: NCI-H23
SR = system: SR
DU-145 = system: DU-145
T47D = system: T47D

Measured: GI50

Cc1cccc2[n+]1[C@H]1[C@H]([C@@H]3O[C@H]1c1ccccc13)[S+]([O-])N2 (stereo not given in full)
inactive: DLD-1 > 100 µM | EKVX 44.4 µM | HCC 2998 72.8 µM | HCT-116 30.3 µM | HT-29 34.4 µM | IGROV-1 32.3 µM | K562 23 µM | NCI-H460 25 µM | NCI-H522 34.8 µM | OVCAR-3 35.9 µM | SF-268 41.1 µM | SF-295 59.8 µM | SK-MEL-28 > 100 µM | SK-MEL-2 25.2 µM | UACC-257 32.5 µM | UO-31 64.7 µM

CC(C)(C)c1cc(Cc2ccc([N+](C)(C)C)cc2)c(O)c(C(C)(C)C)c1
inactive: DLD-1 45.4 µM | EKVX 30.2 µM | HCC 2998 15.7 µM | HCT-116 16.7 µM | HT-29 15.4 µM | IGROV-1 14.2 µM | K562 9.59 µM | NCI-H23 17.7 µM | NCI-H460 18.6 µM | SF-268 15 µM | SF-295 26.3 µM | SK-MEL-28 12.5 µM | SK-MEL-2 16.5 µM | SR 14.1 µM | UACC-257 17 µM | UO-31 95.3 µM

Cc1ccc(C)c(N2C(=O)C(=O)C(c3nc4ccccc4s3)C(=O)C2=O)c1
inactive: DLD-1 > 100 µM | EKVX > 100 µM | HCC 2998 > 100 µM | HCT-116 > 100 µM | HT-29 > 100 µM | IGROV-1 > 100 µM | K562 > 100 µM | NCI-H23 > 100 µM | NCI-H460 > 100 µM | NCI-H522 > 100 µM | OVCAR-3 > 100 µM | SF-268 > 100 µM | SF-295 > 100 µM | SK-MEL-28 > 100 µM | SK-MEL-2 > 100 µM | UACC-257 > 100 µM | UO-31 > 100 µM

CN(C)C(c1ccccc1)C(O)c1ccccc1 (stereo not given)
inactive: DLD-1 > 100 µM | EKVX > 100 µM | HCC 2998 > 100 µM | HT-29 > 100 µM | IGROV-1 > 100 µM | K562 > 100 µM | NCI-H23 > 100 µM | NCI-H460 > 100 µM | NCI-H522 > 100 µM | OVCAR-3 > 100 µM | SF-268 > 100 µM | SF-295 > 100 µM | SK-MEL-28 > 100 µM | SK-MEL-2 > 100 µM | UACC-257 > 100 µM | UO-31 > 100 µM

Cc1cccc(C)c1NC(=O)C(=O)CC(=O)c1cccc([N+](=O)[O-])c1
inactive: DLD-1 > 100 µM | EKVX > 100 µM | HCT-116 > 100 µM | HT-29 > 100 µM | IGROV-1 > 100 µM | K562 > 100 µM | NCI-H23 > 100 µM | NCI-H460 > 100 µM | NCI-H522 > 100 µM | OVCAR-3 > 100 µM | SF-268 > 100 µM | SF-295 > 100 µM | SK-MEL-28 > 100 µM | SK-MEL-2 > 100 µM | SR > 100 µM | UACC-257 > 100 µM | UO-31 > 100 µM

O=C(N/N=C(/c1nc2ccc(Cl)cc2[nH]c1=O)C(O)c1ccc(Cl)cc1Cl)c1ccncc1 (stereo not given)
inactive: DLD-1 > 100 µM | EKVX > 100 µM | HCC 2998 > 100 µM | HCT-116 > 100 µM | HT-29 > 100 µM | IGROV-1 > 100 µM | K562 > 100 µM | NCI-H23 > 100 µM | NCI-H460 > 100 µM | OVCAR-3 > 100 µM | SF-268 > 100 µM | SF-295 > 100 µM | SK-MEL-28 > 100 µM | SK-MEL-2 > 100 µM | UACC-257 > 100 µM | UO-31 > 100 µM

NC(=S)N/N=C(\C(=O)Nc1cccc([N+](=O)[O-])c1)c1nc2ccc([N+](=O)[O-])cc2nc1O
inactive: DLD-1 42 µM | EKVX 54.3 µM | HCC 2998 21.9 µM | HCT-116 58.5 µM | HT-29 > 100 µM | IGROV-1 > 100 µM | K562 89.5 µM | NCI-H23 > 100 µM | NCI-H460 74.6 µM | NCI-H522 3.85 µM | SF-268 > 100 µM | SF-295 > 100 µM | SK-MEL-28 > 100 µM | SK-MEL-2 > 100 µM | UACC-257 7.8 µM | UO-31 > 100 µM

COc1ccc(NC(=O)COC(=O)c2cccc3c(=O)c4ccccc4[nH]c23)cc1
inactive: DLD-1 13.9 µM | EKVX 18.4 µM | HCC 2998 51.1 µM | HCT-116 12.9 µM | HT-29 16 µM | IGROV-1 27.4 µM | K562 17.2 µM | NCI-H23 15.1 µM | NCI-H522 17.9 µM | OVCAR-3 22.1 µM | SF-268 22.3 µM | SF-295 19.5 µM | SK-MEL-28 30.8 µM | SR 11.3 µM | UACC-257 19.9 µM | UO-31 14.8 µM

Brc1ccc(/C=N/C23CC4CC(CC(C4)C2)C3)cc1
inactive: DLD-1 > 100 µM | EKVX > 100 µM | HCC 2998 > 100 µM | HCT-116 > 100 µM | HT-29 > 100 µM | IGROV-1 > 100 µM | K562 > 100 µM | NCI-H23 > 100 µM | NCI-H460 > 100 µM | NCI-H522 > 100 µM | OVCAR-3 > 100 µM | SF-268 > 100 µM | SF-295 > 100 µM | SK-MEL-28 > 100 µM | SK-MEL-2 > 100 µM | UACC-257 > 100 µM | UO-31 > 100 µM

COc1cc2c(cc1OCCCC(=O)Nc1cc(C(=O)Nc3cc(C(=O)Nc4cc(C(=O)NCCCN(C)C)n(C)c4)n(C)c3)n(C)c1)N=C[C@@H]1CCCN1C2=O
inactive: DU-145 3.47 µM | EKVX 2.89 µM | HCC 2998 14.2 µM | HCT-116 1.69 µM | HT-29 1.91 µM | IGROV-1 3.1 µM | K562 2.19 µM | NCI-H23 1.77 µM | NCI-H460 3.21 µM | OVCAR-3 2.02 µM | SF-268 1.63 µM | SF-295 12.2 µM | SK-MEL-28 2.15 µM | SK-MEL-2 2.53 µM | T47D 1.79 µM | UACC-257 1.97 µM | UO-31 1.66 µM
active: NCI-H522 0.224 µM | SR 0.367 µM

O=C(Nc1ccc2ncccc2c1)Nc1ccc2ncccc2c1
inactive: DU-145 > 100 µM | EKVX > 100 µM | HCC 2998 > 100 µM | HCT-116 > 100 µM | HT-29 > 100 µM | IGROV-1 > 100 µM | K562 > 100 µM | NCI-H23 > 100 µM | NCI-H460 > 100 µM | NCI-H522 > 100 µM | OVCAR-3 > 100 µM | SF-268 > 100 µM | SF-295 > 100 µM | SK-MEL-28 > 100 µM | SK-MEL-2 > 100 µM | SR > 100 µM | T47D > 100 µM | UACC-257 > 100 µM | UO-31 > 100 µM

CN(C)CCC(CCN(C)C)=NOC(=O)c1ccccc1
inactive: DLD-1 > 100 µM | EKVX > 100 µM | HCC 2998 > 100 µM | HCT-116 > 100 µM | HT-29 > 100 µM | IGROV-1 > 100 µM | K562 > 100 µM | NCI-H23 > 100 µM | NCI-H460 > 100 µM | NCI-H522 > 100 µM | OVCAR-3 > 100 µM | SF-268 > 100 µM | SF-295 > 100 µM | SK-MEL-28 > 100 µM | SK-MEL-2 > 100 µM | UACC-257 > 100 µM | UO-31 > 100 µM

COc1ccc(COCC[C@H](C)OC2OC(CO)C(O)C(O)C2O)cc1 (stereo not given in full)
inactive: DU-145 > 100 µM | EKVX > 100 µM | HCC 2998 > 100 µM | HCT-116 > 100 µM | HT-29 > 100 µM | IGROV-1 > 100 µM | K562 > 100 µM | NCI-H23 > 100 µM | NCI-H460 > 100 µM | NCI-H522 > 100 µM | OVCAR-3 > 100 µM | SF-268 > 100 µM | SF-295 > 100 µM | SK-MEL-28 > 100 µM | SK-MEL-2 > 100 µM | SR > 100 µM | T47D > 100 µM | UACC-257 > 100 µM | UO-31 > 100 µM

COc1ccc(CC(=O)c2cc(OC)c(OC)cc2C)cc1OC
inactive: DLD-1 > 100 µM | EKVX 63 µM | HCC 2998 > 100 µM | HT-29 > 100 µM | IGROV-1 14 µM | K562 57.5 µM | NCI-H23 20.5 µM | NCI-H460 > 100 µM | NCI-H522 38 µM | OVCAR-3 77.6 µM | SF-268 89.3 µM | SF-295 57.4 µM | SK-MEL-28 81.3 µM | SK-MEL-2 > 100 µM | UACC-257 21.3 µM | UO-31 18.2 µM

CC(=O)N1CC[N+](C)(CCCCN2c3ccccc3Sc3cc(N=[N+]=[N-])ccc32)CC1
inactive: DU-145 > 100 µM | EKVX > 100 µM | HCC 2998 > 100 µM | HCT-116 > 100 µM | HT-29 > 100 µM | IGROV-1 > 100 µM | K562 49.8 µM | NCI-H23 > 100 µM | NCI-H460 > 100 µM | NCI-H522 > 100 µM | OVCAR-3 > 100 µM | SF-268 > 100 µM | SF-295 > 100 µM | SK-MEL-28 > 100 µM | SK-MEL-2 > 100 µM | SR > 100 µM | T47D > 100 µM | UACC-257 > 100 µM | UO-31 > 100 µM

COc1ccc(C2c3cc4c(cc3OC(O)(CO)C2C(=O)O)OCO4)c(OC)c1OC.COc1ccc(C2c3cc4c(cc3OC3(O)COC(=O)C23)OCO4)c(OC)c1OC (stereo not given)
inactive: DLD-1 > 100 µM | EKVX > 100 µM | HCT-116 > 100 µM | HT-29 > 100 µM | IGROV-1 > 100 µM | K562 46.2 µM | NCI-H23 > 100 µM | NCI-H460 > 100 µM | OVCAR-3 > 100 µM | SF-295 > 100 µM | SK-MEL-28 > 100 µM | SK-MEL-2 > 100 µM | UACC-257 > 100 µM | UO-31 > 100 µM
